Converted amounts (≈) assume the structure as drawn.
Assay: Solubility of the dye in water
Type: physicochemical
Excerpt: Further, the dye component used in the Example, which has a solubility in water of 100 g/L, is excellent for ink-jet recording and can produce a high concentration of ink composition.

In the case of `CCC(C)(C)c1ccc(Oc2cc(Nc3ccc(S(=O)(=O)O)cc3)c3c4c(c(C(=O)c5ccccc5)c(=O)[nH]c24)-c2ccccc2C3=O)c(S(=O)(=O)O)c1`, the “solubility in pure water (ion exchanged water)” value (25° C., listed as the dye component used in the Example) is reported as 100 mg/mL (≈ 131 mM) and the solubility (pure water (ion exchanged water), 25 °C, water) is reported as ~100 mg/mL (≈ 131 mM).

— US6530985B1, “Water-based magenta ink composition and method of ink-jet recording” (Nippon Kayaku Kabushiki Kaisha, priority 1998, dated 2003)
